The data set can be described thus: photoluminescence quantum yield (fraction); solvent given as SMILES.
[1] abbreviates: in O=P(c1ccccc1)(c1ccccc1)c1ccccc1Oc1ccccc1P(=O)(c1ccccc1)c1ccccc1.

Results on 21 molecules are retold here after the Deep4Chem optical property database.

Consider `CC1(C)c2ccccc2N(c2ccc(-c3nc4cccc5c4n3-c3ccccc3C5(C)C)cc2)c2ccccc21`, for which the photoluminescence quantum yield by setting is: (in Cc1ccccc1) 0.34; under setting [1], 0.51.
For the molecule `O=c1oc2ccccc2cc1-c1cn2ccccc2n1`, for the setting “in ClC(Cl)Cl”, the photoluminescence quantum yield came out at 0.15.
In the case of `CC(=O)Nc1ccc(C2=C/C(=C\c3ccc(C#N)cc3)C(=O)O2)cc1`, the photoluminescence quantum yield (in C1COCCO1) turned out to be 0.437.
The molecule `CN(C)c1ccc(C2=C3C=C(c4ccc(C=O)cc4)S[C@]34c3ccccc3[C@H]2c2ccccc24)cc1` returned a photoluminescence quantum yield (in ClCCl) of 0.54.
With `CN(C)c1ccc2cc(C3=[O+][B-](F)(F)OC(c4ccc(C#N)cc4)=C3)ccc2c1`, the photoluminescence quantum yield runs as follows: (in C1CCOC1) 0.56; (in CC#N) 0.007; (in CC(C)=O) 0.18; (in CS(C)=O) 0.007; (in Cc1ccccc1) 0.62; (in ClC(Cl)Cl) 0.94. In addition, the photoluminescence quantum yield (in ClCCl) stood at 0.87.
Turning to `CC[N+](CC)=c1ccc2cc3c(=O)oc4cc5c(cc4c3oc-2c1)CCCN5C`, the photoluminescence quantum yield turned out to be 0.265 (in ClCCl) and 0.009 (in O).
On to `CC/[NH+]=c1\cc2oc3cc(NCCNC(=O)C(NC(=O)OC(C)(C)C)C(C)C)c4ccccc4c3nc-2cc1C` (centres undefined), for which the photoluminescence quantum yield runs as follows: (in CCO) 0.35; (in O) 0.48.
Turning to `Cc1cc(C)c(B(c2c(C)cc(C)cc2C)c2cc3ccc4ccccc4c3c3c2cc(N(C)C)c2ccccc23)c(C)c1`, the photoluminescence quantum yield turned out to be 0.23 (in C1CCCCC1); 0.09 (in C1CCOC1); 0.04 (in CC#N); 0.1 (in ClC(Cl)Cl); 0.14 (in c1ccccc1).
The molecule `Cc1cc(C2=C(c3cc(C)sc3C)P(=O)(c3ccccc3)c3ccccc32)c(C)s1` (centres undefined) had a photoluminescence quantum yield (in C1CCOC1) of 0.03.
On to `CCCN1c2ccccc2Sc2cc(/C=C\c3cc(=O)oc4cc(C)c(Cl)cc34)ccc21`, for which the photoluminescence quantum yield (in ClC(Cl)Cl) was 0.77.
Consider `Nc1ccccc1`, for which the photoluminescence quantum yield (in C1CCCCC1) worked out at 0.1.
`c1ccc(N(c2ccccc2)c2ccc(-c3cnc(-c4ccc(N(c5ccccc5)c5ccccc5)cc4)s3)cc2)cc1` gave a photoluminescence quantum yield (in CO) of 0.41.
Take `CC/[NH+]=c1\cc2oc3cc(NCCO)c4ccccc4c3nc-2cc1C`: the photoluminescence quantum yield reads like this: (in CCO) 0.49; (in O) 0.36.
Consider `N#CC1=c2c3cccc4cccc(c43)n2[B-](F)(F)[n+]2ccccc21`, for which the photoluminescence quantum yield reads like this: (in C1CCOC1) 0.86; (in CC#N) 0.96; (in CCCCCC) 0.75; (in Cc1ccccc1) 0.75; (in ClCCl) 0.88.
For `CC1=[N+]2C(=C(c3ccc(-c4c5ccccc5c(-c5ccccc5)c5ccccc45)cc3)c3ccc(C)n3[B-]2(F)F)C=C1`, the photoluminescence quantum yield is, setting by setting: (in CC#N) 0.002; (in CCCCCC) 0.204; (in CCO) 0.037; (in CN(C)C=O) 0.002; (in Cc1ccccc1) 0.259; (in ClCCl) 0.027.
With `Cc1cc(C)c(C2=C3C=C(/C=C/C(=O)OC(C)(C)C)C=[N+]3[B-](F)(F)n3cc(/C=C/C(=O)OC(C)(C)C)cc32)c(C)c1`, under “in ClCCl”, the photoluminescence quantum yield came to 0.4.
The molecule `O=c1oc2cccc3c4cccc5ccc6c7ccccc7c1c(c23)c6c54` gave a photoluminescence quantum yield (in C1CCOC1) of 0.287.
`c1ccc(-c2nc(-c3ccccc3)nc(-c3cccc(-n4c5ccccc5c5c6oc7ccccc7c6ccc54)c3)n2)cc1` showed a photoluminescence quantum yield under setting [1] of 0.311.
Turning to `N#Cc1c(-n2c3ccc(-c4ccccc4)cc3c3cc(-c4ccccc4)ccc32)c(-n2c3ccccc3c3ccccc32)c(-n2c3ccc(-c4ccccc4)cc3c3cc(-c4ccccc4)ccc32)c(-n2c3ccccc3c3ccccc32)c1-n1c2ccc(-c3ccccc3)cc2c2cc(-c3ccccc3)ccc21`, under “in Cc1ccccc1”, the photoluminescence quantum yield was determined as 0.83.
On to `Cc1c(C)c2c3ccccc3[nH]c2c2ccccc12`, for which the photoluminescence quantum yield (in ClCCl) is 0.156.
`COc1cc(C#Cc2ccccc2)c(C#Cc2ccccc2)cc1OC` registered a photoluminescence quantum yield (in CC#N) of 0.81.
